The values below come from patent publication US20230381157A1, “RIFABUTIN FOR THE TREATMENT OF ACINETOBACTER BAUMANNII” (University of Southern California, priority 2018, published 2023).

Where two headings read alike, the source gives them in different places.

Series [1] concerns A. baumannii HUMC1. The series is described as follows: IC50 dose response, inhibition of bacterial growth (BacTiter-Glo viability). The class given is cell-based, Acinetobacter baumannii. Conditions: 11-point dose response, read-out: IC50.
The subject of another series is A. baumannii ATCC 17978. The description is as above. The series is classed as cell-based, Acinetobacter baumannii. The following applies: 11-point dose response, read-out: IC50.
The subject of a further series is HEK293T. The series is described as follows: Specificity: mammalian cell cytotoxicity / inhibition of bacteria growth (CC50/IC50).
Series [2] concerns A. baumannii HUMC1. The series is described as follows: MIC, broth microdilution in MHII, RPMI or modified media. The class given is cell-based, Acinetobacter baumannii. Conditions: inhibitor alone.
Where [3] appears, read: IC50 vs A. baumannii ATCC 17978, RPMI + 50% serum.
[4] abbreviates: IC50 vs A. baumannii ATCC 17978, RPMI alone.
The mark [5] stands for this setting: IC50 vs A. baumannii HUMC1, RPMI + 50% serum.
Setting [6] is: IC50 vs A. baumannii HUMC1, RPMI alone.
The mark [7] stands for this setting: Acinetobacter baumannii, HUMC1, 24 h, HUMC1, RPMI + 50% Serum.
Where [8] appears, read: Acinetobacter baumannii, HUMC1, HUMC1, RPMI + 50% Serum.
The mark [9] stands for this setting: Acinetobacter baumannii, HUMC1, HUMC1, RPMI.
Where [10] appears, read: Acinetobacter baumannii, ATCC17978, 24 h, ATCC 17978, RPMI + 50% Serum.
Where [11] appears, read: Acinetobacter baumannii, ATCC17978, ATCC 17978, RPMI + 50% Serum.
Where [12] appears, read: Acinetobacter baumannii, ATCC17978, ATCC 17978, RPMI.

For `CO[C@H]1/C=C/O[C@@]2(C)Oc3c(C)c([O-])c4c(O)c(cc(O)c4c3C2=O)NC(=O)/C(C)=C\C=C\[C@H](C)[C@H](O)[C@@H](C)[C@@H](O)[C@@H](C)[C@H](OC(C)=O)[C@@H]1C.[Na+]` [rifamycin SV], the concentration for half-maximal inhibition (IC50) with A. baumannii HUMC1 [1] (HUMC1, RPMI + 50% Serum) is 50 µM; in the series with A. baumannii HUMC1 [1] (HUMC1, RPMI), 37.1 µM; with A. baumannii ATCC 17978 (ATCC 17978, RPMI + 50% Serum), 50 µM; with A. baumannii ATCC 17978 (ATCC 17978, RPMI), 45.1 µM. Further, the “Specificity HEK293T (CC50/IC50)” value in the series on HEK293T (setting [3]) is 1.000; in the series on HEK293T (setting [4]), 1.108; in the series with HEK293T (setting [5]), 1.000; in the series on HEK293T (setting [6]), 1.348.
`CSc1ccc2c(c1)N(CCC1CCCCN1C)c1ccccc1S2` (stereo not drawn) [thioridazine]: the MIC with A. baumannii HUMC1 [2] (Acinetobacter baumannii, HUMC1, HUMC1, read-out: MIC of efflux pump inhibitor alone) came to 64 mg/L.
For `CO[C@H]1/C=C/O[C@@]2(C)Oc3c(C)c(O)c4c(O)c(c(/C=N/N=C/N5CCCCC5)c(O)c4c3C2=O)NC(=O)/C(C)=C\C=C\[C@H](C)[C@H](O)[C@@H](C)[C@@H](O)[C@@H](C)[C@H](OC(C)=O)[C@@H]1C` [FCE-22250], the 50% inhibitory concentration (IC50) in the series on A. baumannii HUMC1 [1] (HUMC1, RPMI + 50% Serum) is 21.7 µM; in the series with A. baumannii HUMC1 [1] (HUMC1, RPMI), 9.03 µM; with A. baumannii ATCC 17978 (ATCC 17978, RPMI + 50% Serum) it was 35.3 µM; with A. baumannii ATCC 17978 (ATCC 17978, RPMI) it was 9.74 µM. For the same compound, the “Specificity HEK293T (CC50/IC50)” value in the series on HEK293T (setting [3]) amounted to 0.950; with HEK293T (setting [4]), 3.441; with HEK293T (setting [5]), 1.545; in the series on HEK293T (setting [6]) it was 3.710.
Regarding `CO[C@H]1/C=C/O[C@@]2(C)Oc3c(C)c(O)c4c(O)c(c5c(nc6cc(C)ccn65)c4c3C2=O)NC(=O)/C(C)=C\C=C\[C@H](C)[C@H](O)[C@@H](C)[C@@H](O)[C@@H](C)[C@H](OC(C)=O)[C@@H]1C` [rifaximin], the half-maximal inhibitory concentration (IC50) amounted to 1.59 µM in the series with A. baumannii HUMC1 [1] (setting [7]); 1.59 µM with A. baumannii HUMC1 [1] (setting [8]); 1.53 µM with A. baumannii HUMC1 [1] (setting [9]); 2.45 µM in the series on A. baumannii ATCC 17978 (setting [10]); 2.45 µM in the series with A. baumannii ATCC 17978 (setting [11]); 1.78 µM with A. baumannii ATCC 17978 (setting [12]). The “Specificity HEK293T (CC50/IC50)” value came to 20.421 with HEK293T (setting [3]), 28.143 in the series on HEK293T (setting [4]), 31.517 in the series with HEK293T (setting [5]) and 32.776 in the series with HEK293T (setting [6]).
Take `CO[C@H]1/C=C/O[C@@]2(C)Oc3c(C)c(O)c4c(=O)c(c5oc6cc(N7CCN(CC(C)C)CC7)cc(O)c6nc-5c4c3C2=O)NC(=O)/C(C)=C\C=C\[C@H](C)[C@H](O)[C@@H](C)[C@@H](O)[C@@H](C)[C@H](OC(C)=O)[C@@H]1C` [rifalazil]: the IC50 in the series on A. baumannii HUMC1 [1] (setting [7]) amounted to 7.51 µM; in the series with A. baumannii HUMC1 [1] (setting [8]), 7.51 µM; in the series with A. baumannii HUMC1 [1] (setting [9]), 20 µM; in the series with A. baumannii ATCC 17978 (setting [11]) it was 50 µM; in the series on A. baumannii ATCC 17978 (setting [12]), 17.4 µM. Also, the “Specificity HEK293T (CC50/IC50)” value in the series with HEK293T (setting [3]) is 0.609; in the series with HEK293T (setting [4]), 1.752; with HEK293T (setting [5]), 4.055; with HEK293T (setting [6]) it was 1.523.
`N#CC(C#N)=NNc1cccc(Cl)c1` [CCCP]: the “MIC of efflux pump inhibitor alone” value in the series with A. baumannii HUMC1 [2] (HUMC1) is 8 mg/L.
As to `CO[C@H]1/C=C/O[C@@]2(C)Oc3c(C)c(O)c4c(O)c(cc(O)c4c3C2=O)NC(=O)/C(C)=C\C=C\[C@H](C)[C@H](O)[C@@H](C)[C@@H](O)[C@@H](C)[C@H](OC(C)=O)[C@@H]1C` [rifamycin], the IC50 in the series on A. baumannii HUMC1 [1] (setting [7]) is 35.4 µM; in the series with A. baumannii HUMC1 [1] (setting [8]), 35.4 µM; in the series on A. baumannii HUMC1 [1] (setting [9]), 20.8 µM; with A. baumannii ATCC 17978 (setting [10]), 33 µM; in the series on A. baumannii ATCC 17978 (setting [11]), 33 µM; in the series with A. baumannii ATCC 17978 (setting [12]), 28.4 µM. Further, the “Specificity HEK293T (CC50/IC50)” value in the series with HEK293T (setting [3]) is 0.412; in the series with HEK293T (setting [4]) it was 0.478; with HEK293T (setting [5]) it was 0.383; in the series on HEK293T (setting [6]), 0.654.
Turning to `CO[C@H]1/C=C/O[C@@]2(C)Oc3c(C)c(O)c4c(O)c(c(/C=N/N5CCN(C6CCCC6)CC5)c(O)c4c3C2=O)NC(=O)/C(C)=C\C=C\[C@H](C)[C@H](O)[C@@H](C)[C@@H](O)[C@@H](C)[C@H](OC(C)=O)[C@@H]1C` [rifapentine], the half-maximal inhibitory concentration (IC50) stood at 10.9 µM in the series on A. baumannii HUMC1 [1] (setting [7]); 10.9 µM in the series on A. baumannii HUMC1 [1] (setting [8]); 10 µM in the series with A. baumannii HUMC1 [1] (setting [9]); 28.1 µM with A. baumannii ATCC 17978 (setting [10]); 28.1 µM in the series on A. baumannii ATCC 17978 (setting [11]); 7.59 µM in the series with A. baumannii ATCC 17978 (setting [12]). Besides, the “Specificity HEK293T (CC50/IC50)” value in the series with HEK293T (setting [3]) was 1.222; with HEK293T (setting [4]) it was 4.517; in the series on HEK293T (setting [5]), 3.148; with HEK293T (setting [6]), 3.413.

The term IC50 denotes the concentration at which inhibition is half-maximal. As usually defined, the MIC is the lowest concentration found to suppress growth.
